# Earlier results as cited in paper PMC4101043 (Antiviral research, 2014).
# Where two headings read alike, the source gives them in different places.
# Assays:
# Wild-Type HIV-1 NL4-3 = conditions: MT-4 cells
# [1] = dosage and study duration differ
# UGTs = conditions: stated as known, no reference given
# [2] = CPE inhibition, ref Okello et al., 2013a
Compound,"EC50 (Wild-Type HIV-1 NL4-3; ref Kobayashi et al., 2011)","NOAEL ([1]; adult rats, ref Rhodes et al., 2012)",UGT substrate status / dependence on UGTs for clearance (UGTs),EC50 (Wild-Type HIV-1 NL4-3; [2]),"t1/2 (rats, po doses of 40–120 mg/kg, ref Merck, 2007)","Cl rate (rats, ref Laufer et al., 2009)","Oral bioavailability (F) (ref Merck, 2007)","NOAEL ([1]; ref Merck, 2007)"
C[C@@H]1CCO[C@H]2Cn3cc(C(=O)NCc4ccc(F)cc4F)c(=O)c(O)c3C(=O)N12 [dolutegravir],0.71 nM,50 mg/kg/day,substrates and depend on UGTs for clearance,,,,,
Cc1nnc(C(=O)NC(C)(C)c2nc(C(=O)NCc3ccc(F)cc3)c(O)c(=O)n2C)o1 [raltegravir],,,substrates and depend on UGTs for clearance,6.54 nM,≤ 1.6 h,38.3 mL/min/kg,32%,120 mg/kg/day
COc1cc2c(cc1Cc1cccc(Cl)c1F)c(=O)c(C(=O)O)cn2[C@H](CO)C(C)C [elvitegravir],,,substrates and depend on UGTs for clearance,0.82 nM,,,,
